# Laboratory results from patent US7557108B2, “(Indol-4-yl) or (indol-5-yl)-piperazinylmethanones” (Hoffmann-La Roche Inc., priority 2007, dated 2009).
# Target: T1, human H3R (Homo sapiens, UniProt Q9Y5N1)
# T1 construct: expressed in transfected cells; host or cells: CHO cells
# Experiment: Binding assay with 3H-(R)α-methylhistamine (competition binding, membranes of the human H3R-CHO cell line)
# Conditions: competition with 3H(R)α-methylhistamine (1 nM), Ki calculated from IC50 by Cheng-Prusoff
# Protocol: Binding Assay With ^3H—(R)α-methylhistamine
# Saturation binding experiments were performed using HR3-CHO membranes prepared as described in Takahashi, K, Tokita, S., Kotani, H. (2003) J. Pharmacol. Exp. Therapeutics 307, 213-218.
# An appropriate amount of membrane (60 to 80 μg protein/well) was incubated with increasing concentrations of ^3H(R)α-Methylhistamine di-hydrochloride (0.10 to 10 nM). Non specific binding was determined using a 200 fold excess of cold (R)α-Methylhistamine dihydrobromide (500 nM final concentration). The incubation was carried out at room temperature (in deep-well plates shaking for three hours). The final volume in each well was 250 μl. The incubation was followed by rapid filtration on GF/B filters (pre-soaked with 100 μl of 0.5% PEI in Tris 50 mM shaking at 200 rpm for two hours). The filtration was made using a cell-harvester and the filter plates were then washed five times with ice cold washing buffer containing 0.5 M NaCl. After harvesting, the plates were dried at 55° C. for 60 min, then we added scintillation fluid (Microscint 40, 40 microl in each well) and the amount of radioactivity on the filter was determined in Packard top-counter after shaking the plates for two hours at 200 rpm at room temperature.
# Binding Buffer: 50 mM Tris-HCl pH 7.4 and 5 mM MgCl2×6H2O pH 7.4. Washing Buffer: 50 mM Tris-HCl pH 7.4 and 5 mM MgCl2×6H2O and 0.5 M NaCl pH 7.4.
# Indirect measurement of affinity of H3R inverse agonists: twelve increasing concentrations (ranging from 10 μM to 0.3 nM) of the selected compounds were always tested in competition binding experiments using membrane of the human H3R—CHO cell line. An appropriate amount of protein, e.g. approximately 500 cpm binding of RAMH at Kd, were incubated for 1 hour at room temperature in 250 μl final volume in 96-well plates in presence of ^3H(R)α-methylhistamine (1 nM final concentration=Kd). Non-specific binding was determined using a 200 fold excess of cold (R)α-methylhistamine dihydrobromide.
# All compounds were tested at a single concentration in duplicate. […] The concentration at which 50% inhibition of the radioligand ^3H(R)α-methylhistamine is obtained (the IC50) is determined from the linear regression of a plot of the logarithm of the concentration versus percent inhibition measured for the different concentrations. Ki's were calculated from IC50 based on Cheng-Prusoff equation (Cheng, Y, Prusoff, W H (1973) Biochem Pharmacol 22, 3099-3108): Ki=IC50/[1+D/Kd] wherein D is the concentration of the radioligand and Kd is the binding constant for the radioligand binding to the receptor under the conditions used in the competition experiment.
# T1 sequence (Q9Y5N1 whole entry): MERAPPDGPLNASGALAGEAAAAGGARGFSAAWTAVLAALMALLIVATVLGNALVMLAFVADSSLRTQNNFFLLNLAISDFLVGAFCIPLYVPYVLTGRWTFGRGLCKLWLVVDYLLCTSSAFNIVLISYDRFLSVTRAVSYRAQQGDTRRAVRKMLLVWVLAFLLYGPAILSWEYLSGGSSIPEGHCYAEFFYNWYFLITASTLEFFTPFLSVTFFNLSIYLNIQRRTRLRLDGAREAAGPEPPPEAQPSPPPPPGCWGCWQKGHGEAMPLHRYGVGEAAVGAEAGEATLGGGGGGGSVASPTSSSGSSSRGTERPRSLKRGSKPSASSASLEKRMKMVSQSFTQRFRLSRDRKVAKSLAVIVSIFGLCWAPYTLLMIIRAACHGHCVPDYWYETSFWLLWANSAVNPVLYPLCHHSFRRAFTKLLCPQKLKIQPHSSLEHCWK
row,Ki [nM],SMILES
1,84.4,"CC(C)N1CCN(C(=O)c2ccc3c(ccn3CC3CCCC3)c2)CC1 [Example 1, (1-Cyclopentylmethyl-1H-indol-5-yl)-(4-isopropyl-piperazin-1-yl)-methanone]"
2,52.2,"O=C(c1ccc2c(ccn2S(=O)(=O)c2cccs2)c1)N1CCN(C2CCCC2)CC1 [Example 20, (4-cyclopentyl-piperazin-1-yl)-[1-(thiophene-2-sulfonyl)-1H-indol-5-yl]-methanone]"
3,93.5,"CC(C(=O)c1ccccc1)n1ccc2c(C(=O)N3CCN(C4CCCC4)CC3)cccc21 (stereo not shown) [Example 34, 2-[4-(4-Cyclopentyl-piperazine-1-carbonyl)-indol-1-yl]-1-phenyl-propan-1-one]"
4,17.4,"O=C(c1cccc2c1ccn2Cc1ccc(F)cc1Cl)N1CCN(C2CCCC2)CC1 [Example 41, [1-(2-chloro-4-fluoro-benzyl)-1H-indol-4-yl]-(4-cyclopentyl-piperazin-1-yl)-methanone]"
